From patent publication US20120245121A1, “METHODS FOR IMPROVING BONE HEALTH IN INFANTS USING LONG CHAIN POLYUNSATURATED FATTY ACIDS” (ABBOTT LABORATORIES, priority 2011, published 2012)

Columns and labels:
Assay type in all cases: in vivo, Sprague-Dawley rats
rat offspring [1] = experiment: Micro-CT vertebra cortical architecture of rat offspring after maternal diet supplementation; settings: adolescence
Procedure: Fifty 10-week-old pregnant Sprague-Dawley rats at the eleventh day of gestation (Charles Rivers Laboratories, Orleans Cedex, France) are housed under standardized environmental conditions (22° C., relative humidity of 50%, artificial lighting on for 12 hours/day) and are given free access to deionized water during the test period. The rats are randomly divided into five groups of feeding (n=10/group): (1) Control Group (“Control”), who receives a standard purified rodent diet (SPRD); […] (3) Prebiotic group (“Prebiotic”), who receives the SPRD containing 7.5% of the total carbohydrate as inulin-type fructans (Synergy-1®, Orafti, Belgium); […] During their suckling period, the pups receive only the dam's milk. […] Sacrifices of rat pups are carried out at birth, weaning and at the end of the adolescence period. The whole bone mineral density (BMD) and bone mineral content (BMC) of the skeleton are measured at birth and at weaning by using a pDEXA densitometer (Norland Corp., Fort Atkinson, Wis., USA). In adolescent offspring, the determination of BMC and BMD are analyzed in isolated bones (femur, tibia and vertebrae). Determination of the trabecular architecture parameters (trabecular thickness, separation and number), bone length and bone volume fraction (BV/TV) is analyzed by Micro-computed tomography (micro-CT). Micro-CT analysis is carried out by the Bone & Joint Research Group (University of Southampton, UK) and cortical parameters are performed by SCANCO Medical AG (Brüttisellen, Switzerland). In the present Example, femoral, tibia and vertebra cancellous bones are assessed using Metris (XTek) Benchtop 160Xi CT scanner (University of Southampton) and vertebra cortical bone is assessed using MicroCT-40 computed tomography system (Scanco Medical, Basserdorf, Switzerland). […] Micro-CT analysis also allows for the determination of various quality properties of the cortical bone. The bone fragility is influenced not only by the architecture but also by the tissue “quality”. The strength of a bone as an organ depends on the material properties of bone as a tissue. Stiffness, or the resistance of the whole bone to deformation by a load, is a key material property and requires a destructive mechanical technique if measurements are done in vivo. The non-destructive analysis of the volumetric bone mineral density of cortical bone (cortical vBMD) by micro CT has an approximately linear relationship with the stiffness of the cortical bone. Cortical thickness (C.Th) is one of the variables that helps to evaluate the modeling-derived changes provoked by growth. The cortical porosity (C.Sp) reflects the intracortical remodeling in the bone. […] Results are expressed as mean±SEM, and the probability level at which the differences are considered significant is set at p<0.05. […]

rat offspring [2] = experiment: pDEXA bone mineral density (BMD) and bone mineral content (BMC) of rat offspring after maternal diet supplementation; settings: for lumbar vertebra BMC with respect to Control group / lumbar vertebra BMD with respect to Control group: adolescence
Procedure: Fifty 10-week-old pregnant Sprague-Dawley rats at the eleventh day of gestation (Charles Rivers Laboratories, Orleans Cedex, France) are housed under standardized environmental conditions (22° C., relative humidity of 50%, artificial lighting on for 12 hours/day) and are given free access to deionized water during the test period. The rats are randomly divided into five groups of feeding (n=10/group): (1) Control Group (“Control”), who receives a standard purified rodent diet (SPRD); […] (3) Prebiotic group (“Prebiotic”), who receives the SPRD containing 7.5% of the total carbohydrate as inulin-type fructans (Synergy-1®, Orafti, Belgium); […] During their suckling period, the pups receive only the dam's milk. […] Sacrifices of rat pups are carried out at birth, weaning and at the end of the adolescence period. The whole bone mineral density (BMD) and bone mineral content (BMC) of the skeleton are measured at birth and at weaning by using a pDEXA densitometer (Norland Corp., Fort Atkinson, Wis., USA). In adolescent offspring, the determination of BMC and BMD are analyzed in isolated bones (femur, tibia and vertebrae). Determination of the trabecular architecture parameters (trabecular thickness, separation and number), bone length and bone volume fraction (BV/TV) is analyzed by Micro-computed tomography (micro-CT). Micro-CT analysis is carried out by the Bone & Joint Research Group (University of Southampton, UK) and cortical parameters are performed by SCANCO Medical AG (Brüttisellen, Switzerland). DEXA scan is a technique used in the clinical practice for the analysis of bone health. Two main bone properties can be measured by this technique: Bone Mineral Content (BMC) and areal Bone Mineral Density (BMD). BMC determines the mass of mineral present in the whole body or in the selected skeletal region. BMC changes reflect the result of the metabolic “mass” balance between bone formation and bone destruction. BMC represented relative to the projected bone area refers to BMD. […] The manufacturer's software for research in small animals calculates BMC and BMD for the isolated bone. Femur is measured from the femoral neck to the knee joint. Tibia is measured from the knee joint to the joint between tibia and calcaneus, also including fibula. […] Results are expressed as mean±SEM, and the probability level at which the differences are considered significant is set at p<0.05. One-way ANOVA is used to evaluate differences attributable to the diet in the different markers, previously testing the homogeneity of variances by Levene's. A posteriori post hoc tests are carried out by the Dunnet test.

rat offspring [3] = experiment: Micro-CT trabecular architecture and bone length of rat offspring after maternal diet supplementation
Procedure: Fifty 10-week-old pregnant Sprague-Dawley rats at the eleventh day of gestation (Charles Rivers Laboratories, Orleans Cedex, France) are housed under standardized environmental conditions (22° C., relative humidity of 50%, artificial lighting on for 12 hours/day) and are given free access to deionized water during the test period. The rats are randomly divided into five groups of feeding (n=10/group): (1) Control Group (“Control”), who receives a standard purified rodent diet (SPRD); […] (3) Prebiotic group (“Prebiotic”), who receives the SPRD containing 7.5% of the total carbohydrate as inulin-type fructans (Synergy-1®, Orafti, Belgium); […] During their suckling period, the pups receive only the dam's milk. […] Sacrifices of rat pups are carried out at birth, weaning and at the end of the adolescence period. The whole bone mineral density (BMD) and bone mineral content (BMC) of the skeleton are measured at birth and at weaning by using a pDEXA densitometer (Norland Corp., Fort Atkinson, Wis., USA). In adolescent offspring, the determination of BMC and BMD are analyzed in isolated bones (femur, tibia and vertebrae). Determination of the trabecular architecture parameters (trabecular thickness, separation and number), bone length and bone volume fraction (BV/TV) is analyzed by Micro-computed tomography (micro-CT). Micro-CT analysis is carried out by the Bone & Joint Research Group (University of Southampton, UK) and cortical parameters are performed by SCANCO Medical AG (Brüttisellen, Switzerland). Micro-computed tomography (micro-CT) is a technique for the nondestructive assessment and analysis of the three-dimensional trabecular and cortical bone structural properties. Scanning with micro-CT can be achieved at resolutions as low as 5 μm, allowing for the determination of porosities and subtle modeling and remodeling events of the bone tissue. Furthermore, true three-dimensional image reconstructions permit the assessment of bone microarchitecture as a three dimensional structure, providing critical information to images collected through histomorphometry. In the present Example, femoral, tibia and vertebra cancellous bones are assessed using Metris (XTek) Benchtop 160Xi CT scanner (University of Southampton) and vertebra cortical bone is assessed using MicroCT-40 computed tomography system (Scanco Medical, Basserdorf, Switzerland). […] Results are expressed as mean±SEM, and the probability level at which the differences are considered significant is set at p<0.05. One-way ANOVA is used to evaluate differences attributable to the diet in the different markers, previously testing the homogeneity of variances by Levene's. A posteriori post hoc tests are carried out by the Dunnet test.

[4] = at delivery, appendicular bones

Row | Compound | vertebra cortical porosity (rat offspring [1]) | vertebra cortical vBMD (rat offspring [1]) | vertebrae cortical thickness (rat offspring [1]) | lumbar vertebra BMC with respect to Control group (rat offspring [2]) | lumbar vertebra BMD with respect to Control group (rat offspring [2]) | vertebra BV/TV enhanced in comparison with Control group (rat offspring [3]; adolescence) [%] | vertebra trabecular separation respective to Control group (rat offspring [3]; adolescence) | vertebra trabecular thickness enhanced in comparison with Control group (rat offspring [3]; adolescence) [%] | trabecular number of femur and tibia vs Control group (rat offspring [3]; [4]) | trabecular thickness of femur and tibia vs Control group (rat offspring [3]; [4]) | femur length represented versus body weight (rat offspring [3]; at delivery, no difference to Control group) | trabecular separation of femur and tibia vs Control group (rat offspring [3]; at delivery, statistical differences not achieved) | increase in vertebra trabecular thickness respective to Control group (rat offspring [3]; at weaning) [%] | vertebra BV/TV ratio respective to Control group (rat offspring [3]; at weaning) | vertebra trabecular separation respective to Control group (rat offspring [3]; at weaning) | vertebra cortical features (rat offspring [1]) | whole body BMC relative to Control group (rat offspring [2]; at weaning) | vertebra structural parameters (BV/TV, trabecular thickness) (rat offspring [3]; adolescence)
1 | O=C([O-])[O-].[Ca+2] [Calcium, calcium carbonate] | decrease | increase | without significantly affecting | no differences | no differences | 22 | significant decrease | 17 | greater | lower | 0.572±0.04 | decrease | ~30 | statistically different | statistically different |  |  | 
2 | Vitamin D |  |  |  | no differences | no differences |  |  |  |  |  |  |  |  |  |  | does not show any improvement | lower | No effect
